Series [1] relates to HOP-92 cells. The series can be described thus: Annexin V-FITC/PI apoptosis assay. In kind it is cell-based, human. As to the method:
Using the Annexin V-FITC/PI test, the tendency of compound 4e to cause apoptosis and its potential association with cytotoxic action were evaluated. The cells were labeled with annexin V-FITC/PI and cultured for 24 h to detect any signs of apoptosis. […] According to research on early and late apoptosis and DNA content (Figs. 9, 10), 4e with 3.4% necrosis is probably going to result in a large amount of apoptosis (Table 5 and Fig. 10).
Cell apoptosis were analyzed by the Annexin V-FITC Apoptosis Detection Kit (BioVision Research Products, USA). Thereafter, 1-5 x 10^5 cells was collected by centrifugation and resuspend in 500 μl of 1X Binding Buffer. Added 5 μl of Annexin V-FITC and 5 μl of propidium iodide (PI […], optional.). The cells incubated at room temperature for 5 min in the dark;Analyzed by Annexin V-FITC binding flow cytometric method (Ex = 488 nm; Em = 530 nm) usingFITC signal detector (usually FL1) and PI staining by the phycoerythrin emissionsignal detector (usually FL2).For adherent cells, we gently trypsinized and washed cells once with serum-containing mediabefore incubation with Annexin V-FITC (A.3-5).

The subject of series [2] is HOP-92 cells. Kind of series: Cell cycle analysis (propidium iodide flow cytometry). In kind it is cell-based, human. From the text: Research has been done on how the most powerful antitumor compound, 4e, affects the HOP-92 cell cycle’s growth and apoptosis.
Researcher : Dr.Mohamed Hawas email: mohhawwas80@gmail.com mob. 01151345909 Assay : Cell Cycle Analysis mohamedhassan.pharm.ast@azhr.edu.eg Samples : 02 samplescell line : ---Ref. : ---Date : 00-00-2022Reader : BD FACSCaliburKit used : ab139418_Propidium Iodide Flow Cytometry Kit/BDSolvent : DMSOAssay samples : Cell culture

The nature of series [3]: in vitro. The note with it: human, % viability.

Entries after “also recorded” stand apart in the source; their conditions may differ.

With `C/C(=N\Nc1ccc(S(N)(=O)=O)cc1)c1cnn(-c2cc(=O)[nH]c3ccc(Br)cc23)c1C` [Compound 4e, (E)-4-(2-(1-(1-(6-bromo-2-oxo-1,2-dihydroquinolin-4-yl)-5-methyl-1H-pyrazol-4-yl)ethylidene)hydrazineyl)benzenesulfonamide], the “Apoptosis Late” value in series [1] (HOP92 cells, control 0.15) was determined as 11.28. Also, the “Apoptosis Early” value in series [1] (HOP92 cells, control 0.69) came to 22.91. In series [1] (HOP92 cells, control 1.3), this compound gave a Necrosis of 3.4. Moreover, the “Apoptosis Total” value in series [1] (HOP92 cells, control 2.14) turned out to be 37.59. In addition, in series [1] (HOP-92, 24 h at IC50), the “Apoptosis Early” value is on record as 22.91%, the “Apoptosis Late” value stood at 11.28%, the “Apoptosis Total” value turned out to be 37.59% and the Necrosis is listed as 3.4%. The “DNA content Comment” value in series [2] (HOP92 cells) is “cell growth arrest@ G1”. In series [2] (HOP92 cells, control 16.08), the “DNA content %G2/M” value is given as 14.6%. Besides, the “DNA content %S” value in series [2] (HOP92 cells, control 35.66) stood at 31.29%. Besides, the “DNA content %G0-G1” value in series [2] (HOP92 cells, control 48.26) turned out to be 54.11%. In series [2] (HOP-92, 24 h at IC50), the “Comment (cell cycle arrest)” value was “cell growth is arrested at the G1 phase; also recorded: cell cycle arrest at the G0-1 phase; also recorded: Cell growth arrest at G1phase”, the “DNA content % G0–G1” value was found to be 54.11%, the “DNA content %G2/M” value is 14.6% and the “DNA content %S” value came out at 31.3%.

In series [3], `CN[C@@H]1C[C@H]2O[C@@](C)([C@@H]1OC)n1c3ccccc3c3c4c(c5c6ccccc6n2c5c31)C(=O)NC4` [Staurosporine, reference compound] returned a viability at 0.4 µM of 84.6%, a viability at 6.3 µM of 56.2% and a viability at 25 µM of 46.8%. This compound also gave a viability at 1.6 µM in series [3] (WI38, 1.6uM (log conc. 0.19)) of 68.1%. Also, in series [3] (WI38, 100uM (log conc. 2)), the viability at 100 µM was determined as 37.4%.

Values taken from article PMC12638379, “An innovative approach to development of new pyrazolylquinolin-2-one hybrids as dual EGFR and BRAF^V600E inhibitors” (Molecular Diversity, 2025).
